We go through eight molecules from ChEMBL document CHEMBL1124053, “Synthesis, pharmacology, and molecular modeling studies of semirigid, nicotinic agonists” (1988).

Molecules are shown by their SMILES.

The nature of the assay: Potency (reciprocal of the equipotent molar ratio compared to carbamylcholine), estimated by contracture of the frog rectus abdominis muscle. The class given is functional.
For the molecule `CC(=O)C1CC[N+](C)(C)CC1`, the Potency is 9.1.

In the case of `CC(=O)C1=CC[N+](C)(C)CC1`, the Potency is 50. On to `C[N+]1(C)CCC(=NO)CC1`, for which the Potency is 0.0055. Then `C[N+]1(C)CCN(C(=O)C(F)(F)F)CC1`, with 4.6.

With `CC(=O)N1CC[N+](C)(C)CC1`, the Potency is reported as 2.6. As for `C[C@H](O)C1=CC[N+](C)(C)CC1`, the Potency is given as 2.

Take `C[C@H](O)C1CC[N+](C)(C)CC1`: the Potency is reported as 0.25. Take `C[N+]1(C)CC=C(CO)CC1`: the Potency is given as 0.35.
